Measured values as given in patent US10526316B2, “Quinoxaline and pyridopyrazine derivatives as PI3Kβ inhibitors” (Janssen Pharmaceutica NV, priority 2015, dated 2020).
Like-named read-outs stand apart in the source and are kept apart here.

Experiments:
PI3Kβ = target: T1, PI3Kβ (Homo sapiens, UniProt P42338); test: Enzyme binding assay (KINOMEscan, DiscoveRx)
T1 construct: purchased DiscoveRx Corporation, San Diego (contract service, KINOMEscan)
Protocol: (§1) Enzyme Binding Assays (KINOMEscan®)
Kinase enzyme binding affinities of compounds disclosed herein were determined using the KINOMEscan technology performed by DiscoveRx Corporation, San Diego, Calif., USA (www.kinomescan.com). Table A reports the obtained Kd values (nM), with the Kd being the inhibitor binding constant: […]

PI3Kδ = target: T2, PI3Kδ (Homo sapiens, UniProt O00329); test: Enzyme binding assay (KINOMEscan, DiscoveRx); conditions: PIK3Cδ_h
T2 construct: purchased DiscoveRx Corporation, San Diego (contract service, KINOMEscan)
T2 sequence (O00329 1-1044): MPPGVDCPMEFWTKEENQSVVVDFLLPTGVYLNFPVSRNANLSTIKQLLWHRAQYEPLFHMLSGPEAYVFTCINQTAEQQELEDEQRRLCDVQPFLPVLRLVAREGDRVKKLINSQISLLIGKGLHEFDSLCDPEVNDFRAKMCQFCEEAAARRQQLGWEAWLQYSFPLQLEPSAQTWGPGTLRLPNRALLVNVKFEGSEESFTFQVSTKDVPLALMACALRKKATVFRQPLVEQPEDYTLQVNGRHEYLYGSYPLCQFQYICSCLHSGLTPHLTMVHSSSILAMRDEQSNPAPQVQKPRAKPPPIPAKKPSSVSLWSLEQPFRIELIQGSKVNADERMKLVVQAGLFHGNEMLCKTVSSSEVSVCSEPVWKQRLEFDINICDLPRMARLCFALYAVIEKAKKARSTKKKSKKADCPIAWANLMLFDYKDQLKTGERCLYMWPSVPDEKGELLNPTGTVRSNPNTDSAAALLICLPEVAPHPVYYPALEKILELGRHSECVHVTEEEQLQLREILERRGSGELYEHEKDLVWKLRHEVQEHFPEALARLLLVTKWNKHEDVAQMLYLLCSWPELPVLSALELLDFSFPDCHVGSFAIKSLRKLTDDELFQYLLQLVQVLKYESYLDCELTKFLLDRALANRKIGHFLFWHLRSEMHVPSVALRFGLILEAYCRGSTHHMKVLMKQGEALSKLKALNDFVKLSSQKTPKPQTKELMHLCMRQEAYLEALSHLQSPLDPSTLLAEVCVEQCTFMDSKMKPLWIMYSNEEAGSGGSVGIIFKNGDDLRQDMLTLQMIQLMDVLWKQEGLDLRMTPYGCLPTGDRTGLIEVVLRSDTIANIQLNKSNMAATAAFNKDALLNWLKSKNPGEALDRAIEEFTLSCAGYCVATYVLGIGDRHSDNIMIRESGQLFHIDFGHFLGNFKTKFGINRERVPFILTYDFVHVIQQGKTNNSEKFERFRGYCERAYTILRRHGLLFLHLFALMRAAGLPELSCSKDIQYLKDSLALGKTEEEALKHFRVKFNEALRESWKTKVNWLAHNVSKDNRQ
Protocol: as §1
(§2) Kinase enzyme binding affinities of compounds disclosed herein were determined using the KINOMEscan technology performed by DiscoveRx Corporation, San Diego, Calif., USA (www.kinomescan.com).

kinase enzymes [1] = target: T3, kinase enzymes (Homo sapiens, UniProt P42336); test: Enzyme binding assay (KINOMEscan, DiscoveRx), further kinases of Table A; conditions: PIK3Cα_h
T3 construct: purchased DiscoveRx Corporation, San Diego (contract service, KINOMEscan)
Protocol: as §1, §2

kinase enzymes [2] = target: T4, kinase enzymes (Homo sapiens, UniProt P42345); test: as above; conditions: MTOR_h
T4 construct: purchased DiscoveRx Corporation, San Diego (contract service, KINOMEscan)
Protocol: as §1, §2

kinase enzymes [3] = target: T5, kinase enzymes (Homo sapiens, UniProt P48736); test: as above; conditions: PIK3Cγ_h
T5 construct: purchased DiscoveRx Corporation, San Diego (contract service, KINOMEscan)
Protocol: as §1, §2

[4] = tested on: Akt phosphorylated at Ser473 in PC-3 cells; test: Cellular assay: phosphorylation of Akt at Ser473 in PC-3 cells (MSD ELISA); assay type: cell-based; conditions: PC-3 cells, 60 min compound incubation, MSD ELISA, read-out: IC50 pAkt_S473
Protocol: (§3) Cellular activity of PI3KP inhibitors was determined by quantifying the phosphorylation of Akt in PC-3 cells. Akt phosphorylated at Ser473 and Thr308 were measured using an enzyme-linked immunosorbent assay (ELISA; Meso Scale Discovery (MSD), Gaithersburg. Md.) and specific primary antibodies from MSD.
(§4) On day 2, compound or DMSO (0.3%) was added and cells were further incubated for 60 min at 37° C. 5% CO2 in a total volume of 100 μl of medium.
(§5) The phosphoprotein assay was executed according to vendor instructions in the Phospho-Akt (Ser473) Assay Whole Cell Lysate Kit (MSD # K15100D-3) and the Phospho-Akt (Thr308) Assay Whole Cell Lysate Kit (MSD # K151DYD-3) using the lysis, blocking and wash buffer provided.
(§6) Briefly, at the end of the cell treatment period, media were removed by aspiration and adherent cells were lysed in 50 μl ice-cold lysis buffer. MSD plates are supplied pre-coated with capture antibodies for Phospho-Akt (Ser473 and Thr308). After blocking, lysates from tissue culture plates were added and plates were washed. Then, a solution containing the detection antibody (anti-total Akt conjugated with an electrochemiluminescent compound-MSD Sulfo-tag label) was added. The signals were detected using an MSD SECTOR Imager 6000 and are proportional to the phospho-Akt titres.
(§7) Data were processed. […] From these concentration-response curves, the IC50 values were calculated. Five concentrations were used for curve fitting.

[5] = tested on: Akt phosphorylated at Thr308 in PC-3 cells; test: Cellular assay: phosphorylation of Akt at Thr308 in PC-3 cells (MSD ELISA); assay type: cell-based; conditions: PC-3 cells, 60 min compound incubation, MSD ELISA, read-out: IC50 pAkt_Thr308
Protocol: as §3, §4, §5, §6, §7

[6] = PIK3Cβ_h, read-out: Kd PIK3Cβ_h

T3 sequence (P42336 whole entry): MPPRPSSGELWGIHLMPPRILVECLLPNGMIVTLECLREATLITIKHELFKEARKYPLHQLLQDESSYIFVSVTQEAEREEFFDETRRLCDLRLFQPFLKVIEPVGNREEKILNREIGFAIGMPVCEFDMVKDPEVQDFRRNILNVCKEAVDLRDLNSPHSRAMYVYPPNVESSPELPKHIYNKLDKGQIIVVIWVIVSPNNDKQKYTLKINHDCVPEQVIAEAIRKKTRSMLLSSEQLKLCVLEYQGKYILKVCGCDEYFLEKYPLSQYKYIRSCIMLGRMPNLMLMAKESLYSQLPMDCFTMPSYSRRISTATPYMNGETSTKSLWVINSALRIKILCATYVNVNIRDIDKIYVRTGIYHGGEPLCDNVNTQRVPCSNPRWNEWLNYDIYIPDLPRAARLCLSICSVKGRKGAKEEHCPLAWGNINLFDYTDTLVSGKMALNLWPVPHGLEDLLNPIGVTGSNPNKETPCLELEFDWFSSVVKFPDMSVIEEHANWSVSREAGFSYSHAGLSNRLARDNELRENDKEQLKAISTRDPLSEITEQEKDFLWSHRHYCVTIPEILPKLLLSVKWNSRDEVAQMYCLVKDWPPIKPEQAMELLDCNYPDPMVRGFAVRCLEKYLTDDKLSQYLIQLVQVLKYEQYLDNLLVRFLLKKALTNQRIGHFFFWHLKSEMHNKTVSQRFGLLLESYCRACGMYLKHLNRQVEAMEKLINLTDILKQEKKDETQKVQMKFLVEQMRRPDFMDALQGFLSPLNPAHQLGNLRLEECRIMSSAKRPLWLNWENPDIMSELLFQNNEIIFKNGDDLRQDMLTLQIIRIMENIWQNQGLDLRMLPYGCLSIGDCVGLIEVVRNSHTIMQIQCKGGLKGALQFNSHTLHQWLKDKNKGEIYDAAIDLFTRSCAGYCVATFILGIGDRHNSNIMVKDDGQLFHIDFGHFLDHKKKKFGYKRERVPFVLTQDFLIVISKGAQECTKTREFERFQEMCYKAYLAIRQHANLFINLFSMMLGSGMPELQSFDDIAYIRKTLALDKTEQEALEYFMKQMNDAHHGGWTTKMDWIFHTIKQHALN
T5 sequence (P48736 whole entry): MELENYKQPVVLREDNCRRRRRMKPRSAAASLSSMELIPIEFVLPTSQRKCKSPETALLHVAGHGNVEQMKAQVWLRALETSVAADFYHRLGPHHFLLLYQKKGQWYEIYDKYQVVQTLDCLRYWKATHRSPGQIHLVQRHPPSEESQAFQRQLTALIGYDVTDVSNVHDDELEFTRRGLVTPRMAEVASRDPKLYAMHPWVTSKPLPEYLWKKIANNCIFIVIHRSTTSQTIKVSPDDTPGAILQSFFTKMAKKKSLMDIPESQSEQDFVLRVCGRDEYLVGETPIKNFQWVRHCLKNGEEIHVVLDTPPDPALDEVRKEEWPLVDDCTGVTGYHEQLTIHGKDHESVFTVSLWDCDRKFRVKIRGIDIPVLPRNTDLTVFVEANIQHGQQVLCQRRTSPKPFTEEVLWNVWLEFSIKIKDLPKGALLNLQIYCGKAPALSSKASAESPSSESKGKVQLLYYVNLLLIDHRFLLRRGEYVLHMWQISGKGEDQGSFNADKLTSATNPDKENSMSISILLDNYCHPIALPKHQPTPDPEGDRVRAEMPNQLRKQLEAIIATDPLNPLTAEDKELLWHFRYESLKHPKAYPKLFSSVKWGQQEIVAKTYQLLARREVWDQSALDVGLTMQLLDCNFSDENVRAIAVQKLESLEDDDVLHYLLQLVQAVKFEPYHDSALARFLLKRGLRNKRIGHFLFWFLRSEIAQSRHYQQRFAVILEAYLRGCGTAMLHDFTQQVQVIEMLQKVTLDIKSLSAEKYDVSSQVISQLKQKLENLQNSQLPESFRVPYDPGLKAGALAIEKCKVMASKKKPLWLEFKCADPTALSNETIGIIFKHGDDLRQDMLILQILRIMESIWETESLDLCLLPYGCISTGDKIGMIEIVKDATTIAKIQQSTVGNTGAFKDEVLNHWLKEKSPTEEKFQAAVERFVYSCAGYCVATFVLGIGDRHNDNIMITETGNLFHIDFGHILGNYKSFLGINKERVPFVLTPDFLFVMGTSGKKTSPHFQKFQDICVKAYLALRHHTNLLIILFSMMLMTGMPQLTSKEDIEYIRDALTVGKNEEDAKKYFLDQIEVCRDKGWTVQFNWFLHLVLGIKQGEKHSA
T1 sequence (P42338 whole entry): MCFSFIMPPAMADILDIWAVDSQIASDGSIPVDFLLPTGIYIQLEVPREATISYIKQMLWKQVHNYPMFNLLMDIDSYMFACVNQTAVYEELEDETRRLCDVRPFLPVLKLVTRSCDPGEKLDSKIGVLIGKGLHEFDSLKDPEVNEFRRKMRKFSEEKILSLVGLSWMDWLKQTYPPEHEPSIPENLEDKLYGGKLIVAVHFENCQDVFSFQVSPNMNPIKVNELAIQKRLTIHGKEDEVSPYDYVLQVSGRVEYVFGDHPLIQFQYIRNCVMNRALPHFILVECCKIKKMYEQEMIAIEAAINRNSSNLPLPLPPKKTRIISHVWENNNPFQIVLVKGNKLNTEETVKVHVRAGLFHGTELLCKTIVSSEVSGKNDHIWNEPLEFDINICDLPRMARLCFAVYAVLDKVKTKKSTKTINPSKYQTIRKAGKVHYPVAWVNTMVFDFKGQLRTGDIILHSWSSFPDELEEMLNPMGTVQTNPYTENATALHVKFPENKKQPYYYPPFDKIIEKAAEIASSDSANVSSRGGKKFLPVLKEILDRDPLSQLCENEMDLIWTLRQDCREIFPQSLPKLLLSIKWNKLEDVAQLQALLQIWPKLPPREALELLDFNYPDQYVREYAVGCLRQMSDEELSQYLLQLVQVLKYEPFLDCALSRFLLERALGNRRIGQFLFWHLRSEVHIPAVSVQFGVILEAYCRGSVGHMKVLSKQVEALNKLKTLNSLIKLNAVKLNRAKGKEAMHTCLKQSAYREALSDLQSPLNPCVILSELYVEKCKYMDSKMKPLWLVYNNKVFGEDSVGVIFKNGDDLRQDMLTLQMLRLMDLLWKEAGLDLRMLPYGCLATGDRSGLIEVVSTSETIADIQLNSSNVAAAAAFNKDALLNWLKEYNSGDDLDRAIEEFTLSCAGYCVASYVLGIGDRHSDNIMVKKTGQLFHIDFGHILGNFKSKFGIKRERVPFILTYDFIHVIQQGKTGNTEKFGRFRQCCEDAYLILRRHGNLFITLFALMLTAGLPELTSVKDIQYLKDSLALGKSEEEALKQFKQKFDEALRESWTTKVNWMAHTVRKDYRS

SMILES | Kd (PI3Kβ; [6]) [nM] | Kd (PI3Kδ) [nM] | Kd (kinase enzymes [1]) [nM] | Kd (kinase enzymes [2]) [nM] | Kd (kinase enzymes [3]) [nM] | IC50 ([4]; Homo sapiens, PC-3, 1 h) [nM] | IC50 ([5]; Homo sapiens, PC-3, 1 h) [nM] | IC50 [4] [nM] | IC50 [5] [nM] | Kd (PI3Kβ; Kd PIK3Cβ_h) [nM] | Kd (PI3Kβ; read-out: Kd PIK3Cβ_h) [nM]
CN[C@H]1CCN(C(=O)c2cc(NCc3cc(F)cc(F)c3)c3nc(N4CCOCC4)cnc3c2)C1 [Compound 352] | 2 | 1000 | 2290 | > 30200 | 9770 | 14 | 21 | – | – | – | –
CC(Oc1ccc(F)c(F)c1)c1cc(C(=O)NCCN(C)C)cc2ncc(N3CCOCC3)nc12 (single isomer, unassigned) [Compound 299a] | 1 | 269 | 6310 | > 30200 | 11000 | – | – | ~45 | 56 | – | –
CNCCNC(=O)c1cc(C(C)Nc2cccc(F)c2)c2nc(N3CCOCC3)cnc2c1 (single isomer, unassigned) [Compound 138] | 0.1 | 56 | 398 | 30900 | 2150 | – | – | 3 | 2 | – | –
CC(Nc1cc(F)cc(F)c1)c1cc(C(=O)NS(N)(=O)=O)cc2ncc(N3CCOCC3)nc12 (centres unmarked) [Compound 243] | 1 | 71 | 66 | 1910 | 145 | > 513 | > 513 | – | – | – | –
CC(Nc1cc(F)cc(F)c1)c1cc(C(=O)N2CCOCC2)cc2ncc(N3CCOCC3)nc12 (single isomer, unassigned) [Compound 9] | 417 | 18200 | 27500 | > 30200 | > 30200 | – | – | > 513 | > 513 | – | –
CC(Nc1ccc(F)c(F)c1)c1cc(C(=O)N(C)CCN(C)C)cc2ncc(N3CCOCC3)nc12 (single isomer, unassigned) [Compound 349b] | 14 | 2750 | 4680 | > 30200 | 25700 | – | – | 479 | 302 | – | –
CC(Oc1cccc(F)c1)c1cc(CO)cc2ncc(N3CCOCC3)nc12 (single isomer, unassigned) [Compound 88] | 5 | 603 | 2140 | 14100 | 4680 | – | – | 178 | 89 | – | –
CC(c1cc(C(=O)N(C)C)cc2ncc(N3CCOCC3)nc12)N(C)c1cccc(Cl)c1 (centres unmarked) [Compound 141] | 6 | 776 | 6610 | > 30200 | 8130 | 182 | 102 | – | – | – | –
CC(C)NCCNC(=O)c1cc(C(C)Oc2ccc(F)c(F)c2)c2nc(N3CCOCC3)cnc2c1 (single isomer, unassigned) [Compound 286b] | 2 | 355 | 6030 | > 30200 | 16200 | – | – | – | 204 | – | –
CN(C)C(=O)c1cc(N2CCC2c2ccc(F)cc2)c2nc(N3CCOCC3)cnc2c1 (single isomer, unassigned) [Compound 397b] | 25 | 871 | 1860 | > 30200 | 12300 | – | – | ~513 | > 513 | – | –
CN(C)C(=O)c1cc([C@@H]2CCCN2c2cc(F)cc(F)c2)c2nc(N3CCOCC3)cnc2c1 [Compound 2] | 1090 | 16400 | 12300 | – | – | > 513 | > 513 | – | – | – | –
Cc1cccc(N(C)C(C)c2cc(C(=O)N(C)C)cc3ncc(N4CCOCC4)nc23)c1 (single isomer, unassigned) [Compound 128] | 1120 | 15100 | 4900 | 21400 | 12300 | – | – | > 513 | > 513 | – | –
Cc1c(CNc2cc(C(=O)NCCO)cc3ncc(N4CCOCC4)nc23)cccc1C(F)(F)F [Compound 231] | 52 | > 3310 | 17000 | > 10000 | > 30200 | ~457 | 398 | – | – | – | –
C[C@@H](Nc1cccc(F)c1)c1cc(C(=O)NCCO)cc2ncc(N3CCOCC3)nc12 [Compound 117] | – | – | – | – | – | 49 | 44 | – | – | – | –
C[C@@H](Nc1cc(F)cc(F)c1)c1cc(C(=O)NCCN(C)C)cc2ncc(N3CCOCC3)nc12 [Compound 184a] | – | – | 806 | 21900 | 1480 | – | – | 3 | 2 | 0.1 | –
CC(C)NCCNC(=O)c1cc(C(C)Oc2cccc(F)c2)c2nc(N3CCOCC3)cnc2c1 (single isomer, unassigned) [Compound 314b] | 2 | 1000 | 8910 | > 30200 | 16600 | – | – | 191 | – | – | –
Cc1ccc(F)cc1CNc1cc(C(=O)NCCO)cc2ncc(N3CCOCC3)nc12 [Compound 343] | 22 | – | 2190 | > 10000 | – | 389 | 178 | – | – | – | –
CN[C@H]1CCN(C(=O)c2cc(C(C)Nc3cc(F)c(F)c(F)c3)c3nc(N4CCOCC4)cnc3c2)C1 (some centres unmarked) [Compound 297] | 0.3 | 110 | 1860 | > 30200 | 1950 | – | 20 | – | – | – | –
CC(Nc1ccc(F)c(F)c1)c1cc(C(=O)NCCO)cc2ncc(N3CCOCC3)nc12 (single isomer, unassigned) [Compound 279b] | 1910 | – | 26300 | > 30200 | 6460 | – | – | 59 | > 513 | – | –
C[C@@H](Nc1cc(F)cc(F)c1)c1cc(C(=O)NCCN(C)C)cc2ncc(N3CCOCC3)nc12 [Compound 184b] | – | – | 589 | 20000 | 1100 | – | – | 3 | 2 | – | 0.1
COC(=O)c1cc(C(C)Nc2cc(F)cc(Cl)c2)c2nc(N3CCOCC3)cnc2c1 (centres unmarked) [Compound 264] | 52 | – | – | > 30200 | – | – | – | > 513 | – | – | –
C[C@@H](Nc1cc(F)cc(F)c1)c1cc(C(=O)NCCN(C)C)cc2ncc(N3CCOCC3)nc12 [Compound 184c] | – | – | 829 | 24000 | 1270 | – | – | 4 | 2 | – | 0.1
CC(Nc1cc(F)cc(F)c1)c1cc(C(=O)N(C)CCN(C)C)cc2ncc(N3CCOCC3)nc12 (single isomer, unassigned) [Compound 182] | 0.3 | 32 | 126 | > 30200 | 912 | – | – | 1 | – | – | –
